# US12377103B2, “Use of bromodomain-containing protein 9 inhibitors to treat and/or prevent uterine leiomyosarcoma” (The University of Chicago, priority 2022, dated 2025)
# What was measured:
# [1] = test system: macrophages; settings: cited from earlier work
# [2] = test system: ovarian cancer; settings: associated with cell cycle arrest, apoptosis induction, metabolic alterations; cited from earlier work
# [3] = molecular target: CECR2 BRD (Homo sapiens, UniProt Q9BXF3); settings: within cells; cited from earlier work
# CECR2 BRD, sequence (Q9BXF3 434-538 limits assumed): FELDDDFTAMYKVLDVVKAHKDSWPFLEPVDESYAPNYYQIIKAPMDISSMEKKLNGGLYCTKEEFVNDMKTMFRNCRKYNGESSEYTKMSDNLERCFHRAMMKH
# [4] = test system: SW48 colon cancer cells; settings: cited from earlier work
# [5] = test system: endometrial cancer cells; settings: cited from earlier work
# [6] = test system: melanoma; settings: by suppressing ECM-mediated oncogenic signaling and inducing apoptosis; cited from earlier work
# [7] = test system: MES-SA cells; experiment: Proliferation assay (trypan blue exclusion), MES-SA; assay type: cell-based, human; settings: 1-25 μM, 48 h, FIG. 4D
# Experimental: (§1) The leiomyosarcoma (uLMS) cell line (SK-UT1, ATCC® HTB-114TM) (ATCC, Manassas, VA, USA) was cultured and maintained in ATCC-formulated Eagle's Minimum Essential Medium with 10% of fetal bovine serum. In addition, the uterine sarcoma cell line (MES-SA) (ATCC, Manassas, VA, USA) was cultured and maintained in McCoy's 5A medium. The immortalized human leiomyoma cell line (HuLM) and immortalized human uterine smooth muscle (UTSM) cells were a generous gift from Professor Darlene Dixon. The HuLM and UTSM cell lines were cultured and maintained in phenol red-free, Dulbecco's Modified Eagle Medium: Nutrient Mixture F-12. These cell lines, covering the spectrum from normal cell line (UTSM), benign uterine tumor cell line (HuLM), and uterine malignant cell lines (uLMS), were used to better understand the tumor progression linking to the BRD9 dysregulation in uLMS. BRD9 inhibitor (iBRD9) TP-472 was purchased from Tocris (Cat #6000, Minneapolis, MN, USA).
# (§2) Cell proliferation was measured using trypan blue exclusion assay; 4 104 cells per well were seeded into 12-well tissue culture plates, treated with the iBRD9 (TP-472) at a dose range from 1-25 μM for 48 h. This assay was performed three times in triplicate.
# (§3) Trypan blue exclusion assay was performed in SK-UT-1 and MES-SA cell lines treated for 48 h with TP-472 at dose ranges from 1-25 μM.
# [8] = test system: SK-UT-1 cells; experiment: Proliferation assay (trypan blue exclusion), SK-UT-1; assay type: cell-based, human; settings: 1-25 μM, 48 h, FIG. 4C
# Experimental: as §1, §2, §3
# [9] = molecular target: BRD9 (Homo sapiens, UniProt Q9H8M2); settings: cited from earlier work
# BRD9, sequence (Q9H8M2 whole entry): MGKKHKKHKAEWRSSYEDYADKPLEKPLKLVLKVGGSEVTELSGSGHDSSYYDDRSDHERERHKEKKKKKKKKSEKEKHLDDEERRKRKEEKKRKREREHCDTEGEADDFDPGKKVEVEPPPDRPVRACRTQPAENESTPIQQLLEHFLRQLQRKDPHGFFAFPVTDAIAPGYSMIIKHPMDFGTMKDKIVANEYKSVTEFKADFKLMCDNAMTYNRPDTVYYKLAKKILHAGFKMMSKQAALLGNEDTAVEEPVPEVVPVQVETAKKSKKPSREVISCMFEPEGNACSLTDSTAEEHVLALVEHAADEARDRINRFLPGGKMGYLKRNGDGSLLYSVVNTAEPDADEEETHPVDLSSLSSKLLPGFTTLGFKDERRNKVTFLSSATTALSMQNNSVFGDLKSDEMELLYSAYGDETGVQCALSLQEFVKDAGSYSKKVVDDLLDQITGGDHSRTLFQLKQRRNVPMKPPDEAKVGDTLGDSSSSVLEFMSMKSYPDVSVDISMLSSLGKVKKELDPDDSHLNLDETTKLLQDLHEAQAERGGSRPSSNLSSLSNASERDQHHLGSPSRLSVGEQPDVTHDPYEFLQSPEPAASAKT
# [10] = test system: BCL-2; experiment: Western blot of BCL-2 protein levels in SK-UT-1 cells; assay type: cell-based, human; settings: dose-dependent manner, FIG. 4E-4F
# Experimental: Cells were collected and lysed in RIPA lysis buffer with protease and phosphatase inhibitor cocktail (Thermo Scientific, Waltham, MA, USA), the protein was quantified using the Bradford method (Bio-Rad Protein Assay kit). The antigen—antibody complex was detected with Trident Femto Western HRP substrate (Gene-Tex, Irvine, CA, USA). Specific protein bands were visualized using ChemiDoc XRS ♭ molecular imager (Bio-Rad, Hercules, CA, USA).
# as §3
# [11] = test system: SK-UT-1 cells; experiment: RNA-sequencing of TP-472 vs control treated SK-UT-1 cells; assay type: cell-based, human
# Experimental: To determine the mechanism underlying the inhibitory effect of BRD9 inhibition on the uLMS, the SK-UT-1 cells were treated with iBRD9 TP-472 (5 μM) for 48 h. RNA was isolated using Trizol. RNA quality and quantity were assessed using the Agilent bio-analyzer. Strand-specific RNA-SEQ libraries were prepared using a TruSEQ total RNA-SEQ library protocol (Illumina provided). Library quality and quantity were assessed using the Agilent bio-analyzer and libraries were sequenced using an Illumina NovaSEQ6000 (illumine provided reagents and protocols).
# A variety of R packages was used for this analysis. All graphics and data wrangling were handled using the tidyverse suite of packages. All packages used are available from the Comprehensive R Archive Network (CRAN), the Bioconductor project, or Github. The reads were mapped to the human reference transcriptome using STAR, version 2.6.1d (GitHub, Inc., San Francisco, CA, USA). The quality of raw reads, as well as the results of STAR mapping, are generated using fastqc and multiqc. Raw reads were mapped to the human reference transcriptome using Salmon, version 1.4.0. After reading mapping with Salmon, the tximport software package (Bioconductor project, accessed on 27 Oct. 2021) was used to read Salmon outputs into the R environment. Annotation data from Gencode V34 was used to summarize data from transcript-level to gene-level.
# For Parsimonious gene correlation network analysis (PGCNA), normalized matrix of DEGs (Adjusted p-Values<0.05 and […]; n=3583) and the top 80% of the most variance genes across samples (n=10,848) were used to network construction. The matrix was used to calculate Spearman rank correlations for all gene pairs using the Python PGCNA2 package. For each gene (row) in a correlation matrix, only the three most correlated edges per gene were retained. The correlation matrices were clustered 100 times using the fast unfolding of communities in a large network's algorithm and the best (judged by modularity score) were used for downstream analysis. Gephi package with the ForceAt-1as2 layout method was used to visualize the network. Enrichment analyses were performed using the Enrichr web server (Ma′ayan lab at Icahn School of Medicine at Mount Sinai, accessed on 10 Jan. 2022) through EnrichR package in R software. Top biological process GO terms with the false discovery rate (FDR)[…] were analyzed using REVIGO to summarize and find a representative subset of the terms. STRING database (accessed on 27 Apr. 2022), which is the online search tool to protein-protein network (PPI) construction, was used to reconstruct each modules network (A combined score≥0.4 of PPI pairs was considered significant), then the Cytoscape software was employed to analyze the obtained networks. In addition, the Venn diagram online tool provided by VIB and Ghent University (accessed on 27 Apr. 2022) was used to investigate the intersection of DEGs and selected modules.
# To determine the mechanistic action of TP-472 inhibition on uLMS cells, RNA-sequencing analysis was performed in control and TP-472 treated cells (n=4 each).
# [12] = test system: SK-UT-1 cells; experiment: qRT-PCR validation of cell cycle and apoptosis genes; assay type: cell-based, human; settings: iBRD9 treatment
# Experimental: Total RNA was isolated using Trizol reagent (Invitrogen, Carlsbad, CA, USA). The concentration of total RNA was determined using NanoDrop (Thermo Scientific, Waltham, MA, USA). One microgram of total RNA from each sample was reverse transcribed to complementary DNA (cDNA) using the High-Capacity cDNA Transcription Kit (Thermo Scientific, Waltham, MA, USA). Quantitative real-time polymerase chain reaction (qRT-PCR) was performed to determine the messenger RNA (mRNA) expression of several genes listed with their primer sequences in Table 2. The real-time PCR reactions were performed using CFX96 PCR instrument using SYBR Green Supermix (Bio-Rad, Hercules, CA, USA). 18S was used as an internal control. The results are presented as relative gene expression using CFX Maestro™. The assay was performed three times in triplicate.
# Quantitative real-time PCR was performed to determine the mRNA expression of genes as described previously. An equal amount of cDNA from each sample was added to the Master mix containing appropriate primer sets and SYBR green supermix (Bio-Rad) in a 20 μL reaction volume. All samples were analyzed in triplicates. Real-time PCR analyses were performed using a Bio-Rad CFX96. Cycling conditions included denaturation at 95° C. for 2 min followed by 40 cycles of 95° C. for 5 s and 60° C. for 30 seconds then 65° C. for 5 seconds. […]
# [13] = SK-UT-1 cells, 5 μM, 48 h, n=4 each
# [14] = module I, SK-UT-1, TP-472 5 μM 48 h vs control
# [15] = module III, SK-UT-1, TP-472 5 μM 48 h vs control
# [16] = module VI, SK-UT-1, TP-472 5 μM 48 h vs control
# [17] = module VII, SK-UT-1, TP-472 5 μM 48 h vs control
smiles,measurement,setting,value
Cc1sc2c(c1C)C(c1ccc(Cl)cc1)=N[C@@H](CC(=O)OC(C)(C)C)c1nnc(C)n1-2 [JQ1],IL-6 and TNF levels,[1],reduce
same,tumor growth in ovarian cancer,[2],suppresses tumor growth
CCCS(=O)(=O)c1nc(NC2CC2)cc(-c2ccc3c(ccn3C3CC(C)(C)NC(C)(C)C3)c2)n1 [NVS-CECR2-1],chromatin binding of CECR2 BRD,[3],inhibits
same,cytotoxic activity against human cancer cells,[4],killing SW48 colon cancer cells by inducing apoptosis
O=C1NC(=NCc2cccs2)S/C1=C\c1ccc2ncccc2c1 [RO3306],cell apoptosis and cell cycle in endometrial cancer cells,[5],induced cell apoptosis and caused G2/M phase arrest
CC(=O)c1cc(-c2cc(C(=O)NC3CC3)ccc2C)c2ncccn12 [TP-472],tumor growth in melanoma,[6],blocked tumor growth
same,effect on proliferation of MES-SA cells,[7],dose-dependent inhibitory effect
same,effect on proliferation of SK-UT-1 cells,[8],dose-dependent inhibitory effect
same,potency for BRD9,[9],high potency
same,protein levels of BCL-2,[10],significantly decreased
same,mRNA levels of BAK,"[11]; RNA-seq, treated SK-UT-1 cells vs control, FIG. 7B",significantly increased
same,CDKN1A expression,"[11]; RNA-seq, treated uLMS cells vs control, FIG. 7A",significantly higher
same,expression of AKT1,"[11]; RNA-seq, treated uLMS cells, FIG. 7C",markedly decreased
same,expression of AKT2,"[11]; RNA-seq, treated uLMS cells, FIG. 7D",significantly decreased
same,expression of Gill,"[11]; RNA-seq, uLMS cells, FIG. 7E",significantly decreased
same,GLI2 expression,"[11]; RNA-seq, uLMS cells, FIG. 7F",markedly reduced
same,"differentially expressed genes (DEGs), down",[11]; [13],1741
same,"differentially expressed genes (DEGs), total",[11]; [13],3583
same,"differentially expressed genes (DEGs), up",[11]; [13],1842
same,FC of hub gene CEBPB,[11]; [14],1.75
same,FC of hub gene EGR1,[11]; [14],1.63
same,FC of hub gene FOS,[11]; [14],1.50
same,FC of hub gene GATA2,[11]; [14],2.26
same,FC of hub gene GRIN1,[11]; [14],2.54
same,FC of hub gene MYC,[11]; [14],1.56
same,FC of hub gene SHH,[11]; [14],4.66
same,FC of hub gene SOX9,[11]; [14],2.02
same,FC of hub gene STX1A,[11]; [14],1.78
same,FC of hub gene TERT,[11]; [14],1.68
same,FC of hub gene CCT2,[11]; [15],1.61
same,FC of hub gene CYCS,[11]; [15],1.86
same,FC of hub gene EIF2S1,[11]; [15],1.52
same,FC of hub gene HSPA8,[11]; [15],1.75
same,FC of hub gene IMP3,[11]; [15],1.62
same,FC of hub gene NIP7,[11]; [15],1.92
same,FC of hub gene NOP56,[11]; [15],1.64
same,FC of hub gene NOP58,[11]; [15],1.74
same,FC of hub gene PA2G4,[11]; [15],1.55
same,FC of hub gene RPL26L1,[11]; [15],1.58
same,FC of hub gene BYSL,[11]; [16],1.75
same,FC of hub gene CCND1,[11]; [16],2.21
same,FC of hub gene FN1,[11]; [16],2.40
same,FC of hub gene HRAS,[11]; [16],1.60
same,FC of hub gene JUN,[11]; [16],3.13
same,FC of hub gene KIT,[11]; [16],20.37
same,FC of hub gene LEF1,[11]; [16],6.22
same,FC of hub gene MRTO4,[11]; [16],2.16
same,FC of hub gene PDCD11,[11]; [16],1.69
same,FC of hub gene RRP9,[11]; [16],2.71
same,FC of hub gene CDK1,[11]; [17],−1.56
same,FC of hub gene CHEK2,[11]; [17],−1.69
same,FC of hub gene FGF2,[11]; [17],−1.56
same,FC of hub gene HLTF,[11]; [17],−1.78
same,FC of hub gene MIS18BP1,[11]; [17],−1.53
same,FC of hub gene STAG2,[11]; [17],−1.51
same,FC of hub gene TIA1,[11]; [17],−1.60
same,FC of hub gene TOP2A,[11]; [17],−1.52
same,FC of hub gene TOP2B,[11]; [17],−1.52
same,FC of hub gene WDHD1,[11]; [17],−1.52
same,expression of CDKN1A by q-PCR,[12]; FIG. 7G,significant increase
same,expression of BAK1 by q-PCR,[12]; FIG. 7H,significant increase
